From ChEMBL document CHEMBL1201862, “PubChem BioAssay data set” (2004)
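Each compound was tested at five concentrations against cells in 96-well plates for 48 hours. The concentration for 50% growth inhibition is given as GI50.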 Active and inactive are the calls of the source. Rule as the data show it: active = GI50 up to about 1.1 µM and inactive = higher.

Key:
Experiment in all cases: NCI tumour cell line growth inhibition, 48 h
MOLT-4 = tested on: MOLT-4
SF-268 = tested on: SF-268
DU-145 = tested on: DU-145
T47D = tested on: T47D
EKVX = tested on: EKVX
U-251 = tested on: U-251
SN12C = tested on: SN12C
SK-MEL-28 = tested on: SK-MEL-28
HCC 2998 = tested on: HCC 2998
MDA-MB-435 = tested on: MDA-MB-435
UACC-257 = tested on: UACC-257
OVCAR-8 = tested on: OVCAR-8
HCT-116 = tested on: HCT-116
HCT-15 = tested on: HCT-15
RXF 393 = tested on: RXF 393
786-0 = tested on: 786-0
NCI/ADR-RES = tested on: NCI/ADR-RES
KM12 = tested on: KM12
OVCAR-5 = tested on: OVCAR-5
ACHN = tested on: ACHN

SMILES	GI50 (MOLT-4)	GI50 (SF-268)	GI50 (DU-145)	GI50 (T47D)	GI50 (EKVX)	GI50 (U-251)	GI50 (SN12C)	GI50 (SK-MEL-28)	GI50 (HCC 2998)	GI50 (MDA-MB-435)	GI50 (UACC-257)	GI50 (OVCAR-8)	GI50 (HCT-116)	GI50 (HCT-15)	GI50 (RXF 393)	GI50 (786-0)	GI50 (NCI/ADR-RES)	GI50 (KM12)	GI50 (OVCAR-5)	GI50 (ACHN)
CN(C)CC1CN(C(=O)Nc2ccccc2)C(=N)O1 (stereo not given)	> 100 µM (inactive)	> 100 µM (inactive)	38.2 µM (inactive)	> 100 µM (inactive)	> 100 µM (inactive)	> 100 µM (inactive)	> 100 µM (inactive)	> 100 µM (inactive)	> 100 µM (inactive)	> 100 µM (inactive)	> 100 µM (inactive)	> 100 µM (inactive)	> 100 µM (inactive)	> 100 µM	> 100 µM (inactive)	> 100 µM (inactive)	> 100 µM (inactive)	> 100 µM (inactive)	> 100 µM (inactive)	> 100 µM (inactive)
COC(=O)c1c(C)cccc1C1CN=NC12Cc1ccc(C)cc1C2=O (stereo not given)	27.4 µM (inactive)	50.7 µM (inactive)	49 µM (inactive)	17.1 µM (inactive)	26.7 µM (inactive)	41.9 µM (inactive)	48.4 µM (inactive)	43.4 µM (inactive)	40.9 µM (inactive)	32.7 µM (inactive)	49.1 µM (inactive)	43.2 µM (inactive)	25 µM (inactive)	50.2 µM	75.9 µM (inactive)	71.3 µM (inactive)	23 µM (inactive)	47.9 µM (inactive)	> 100 µM (inactive)	26.9 µM (inactive)
O=C(NC(Cc1c[nH]c2ccccc12)C(=O)O)/C(=C/c1ccccc1)NC(=O)c1ccccc1 (stereo not given)	51.1 µM (inactive)	> 100 µM (inactive)	79.8 µM (inactive)	36.2 µM (inactive)	42.7 µM (inactive)	46.8 µM (inactive)	> 100 µM (inactive)	> 88.9 µM (inactive)	78.3 µM (inactive)	78.9 µM (inactive)	> 88.7 µM (inactive)	57.5 µM (inactive)	> 80.4 µM (inactive)	> 55.1 µM	34.8 µM (inactive)	> 100 µM (inactive)	36.6 µM (inactive)	57.9 µM (inactive)	56.1 µM (inactive)	> 94.8 µM (inactive)
CCN(CC)CCNC(=O)c1cc2cc(NC(=O)c3cc4cc(N)ccc4[nH]3)ccc2[nH]1	13.2 µM (inactive)	31.4 µM (inactive)	19.6 µM (inactive)	20.3 µM (inactive)	97.1 µM (inactive)	25.6 µM (inactive)	39 µM (inactive)	> 100 µM (inactive)	17.1 µM (inactive)	17.7 µM (inactive)	51.1 µM (inactive)	32.2 µM (inactive)	16 µM (inactive)	> 100 µM	20.3 µM (inactive)	35.8 µM (inactive)	> 100 µM (inactive)	14.7 µM (inactive)	> 100 µM (inactive)	> 100 µM (inactive)
Cc1cc2nc(N3C(=O)/C(=C/c4ccc(N(C)C)cc4)N=C3c3ccccc3)sc2cc1C	1.14 µM (inactive)	40 µM (inactive)	50.4 µM (inactive)	31.4 µM (inactive)	23 µM (inactive)	32.7 µM (inactive)	18.7 µM (inactive)	51.9 µM (inactive)	18.9 µM (inactive)	7.46 µM (inactive)	27.2 µM (inactive)	32.3 µM (inactive)	17 µM (inactive)	32.5 µM	18.5 µM (inactive)	20.5 µM (inactive)	28.6 µM (inactive)	26 µM (inactive)	22.9 µM (inactive)	19.9 µM (inactive)
COC(=O)C(NC(=O)CSc1nnc(COc2ccc(Cl)cc2)n1-c1ccccc1)C(C)C (stereo not given)	21.6 µM (inactive)	20.7 µM (inactive)	37.3 µM (inactive)	20.8 µM (inactive)	23 µM (inactive)	51.4 µM (inactive)	18.6 µM (inactive)	21.5 µM (inactive)	18.6 µM (inactive)	19.9 µM (inactive)	17.7 µM (inactive)	23.7 µM (inactive)	13 µM (inactive)	36.7 µM	24 µM (inactive)	18.1 µM (inactive)	22.6 µM (inactive)	19.1 µM (inactive)	28.8 µM (inactive)	39.3 µM (inactive)
O=C(NC(c1ccccc1)C(O)C(=O)OCc1ccc2c(c1)C(=O)c1ccccc1C2=O)c1ccccc1 (stereo not given)	74.6 µM (inactive)	17.1 µM (inactive)	54.7 µM (inactive)	15.2 µM (inactive)	24.7 µM (inactive)	5.46 µM (inactive)	8.69 µM (inactive)	28.1 µM (inactive)	39.6 µM (inactive)	34.4 µM (inactive)	28.5 µM (inactive)	4.25 µM (inactive)	3.94 µM (inactive)	> 95.3 µM	3.13 µM (inactive)	2.94 µM (inactive)	4.35 µM (inactive)	57.4 µM (inactive)	58.7 µM (inactive)	9.31 µM (inactive)
